Experimental data: PubChem BioAssay (NCI)
“And” between values parts separate entries of the source, which are not always exact repeats. Equal entries are not always repeated.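 Interpolation was linear, between the two tested concentrations surrounding the appropriate level; five concentrations were tested over 48 hours in 96-well plates. GI50: concentration for 50% inhibition of growth. Definition used: TGI = concentration required for complete inhibition of growth.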

What was measured:
Assay in all cases: NCI-60 cell line screen, 48 h
T-47D breast = system: T-47D breast
DU-145 prostate = system: DU-145 prostate
SNB-75 CNS = system: SNB-75 CNS
MCF7 breast = system: MCF7 breast
MALME-3M melanoma = system: MALME-3M melanoma
HS 578T breast = system: HS 578T breast
UO-31 renal = system: UO-31 renal
HL-60(TB) leukemia = system: HL-60(TB) leukemia

SMILES | TGI (T-47D breast) | TGI (DU-145 prostate) | TGI (SNB-75 CNS) | TGI (MCF7 breast) | TGI (MALME-3M melanoma) | TGI (HS 578T breast) | TGI (UO-31 renal) | TGI (HL-60(TB) leukemia) | GI50 (T-47D breast) | GI50 (DU-145 prostate) | GI50 (SNB-75 CNS) | GI50 (MCF7 breast) | GI50 (MALME-3M melanoma) | GI50 (HS 578T breast) | GI50 (UO-31 renal) | GI50 (HL-60(TB) leukemia)
Cc1ccc2nc(-c3ccccc3)c(N=O)n2c1 | > 100 µM | > 100 µM | > 100 µM | > 100 µM | > 100 µM | > 100 µM | > 100 µM | – | – | – | – | – | – | – | – | –
Cc1cc(Cc2cc(C)cc(C(C)(C)C)c2O)c(O)c(Cc2cc(C)cc(C(C)(C)C)c2O)c1 | 11.3 µM | 13.7 µM | 14.2 µM | 7.93 µM | 5.13 µM | 5.93 µM | 10.4 µM | 5.23 µM | – | – | – | – | – | – | – | –
COc1cc(NC(=O)CSc2nc3ccc(C)cc3c(=O)n2Cc2ccccc2)cc(OC)c1OC | 66.9 µM | > 100 µM | 4.33 µM | > 100 µM | 31.3 µM | > 100 µM | > 100 µM | > 100 µM | 4.01 µM | 84.7 µM | 1.82 µM | 9.98 µM | 4.07 µM | 3.23 µM | 5.97 µM | > 100 µM
COc1cc(/C=N/NC(=O)c2cnn3c2NC(c2ccccc2)C3)ccc1Oc1ccccc1 (stereo unspecified) | 16.9 µM | 4.84 µM | 3.41 µM | 10.2 µM | 5.26 µM | 5.22 µM | 12.2 µM | – | 0.998 µM | 1.42 µM | 1.3 µM | 0.436 µM | 1.21 µM | 1.65 µM | 1.69 µM | –
CN(C)CC1C(=O)O[C@H]2[C@H]1CC/C(COC(=O)c1cc3ccccc3[nH]1)=C\CC[C@@]1(C)O[C@@H]21 (stereo partly specified) | 5.54 µM | 6.17 µM | 10.4 µM | 4.55 µM | 4.56 µM | 13.6 µM | 2.36 µM | 3.53 µM | 2.19 µM | 2.01 µM | 2.18 µM | 1.01 µM | 1.8 µM | 2.93 µM | 0.872 µM | 0.663 µM
CC[C@@]1(OC(=O)CN)C(=O)OCc2c1cc1n(c2=O)Cc2cc3c(N)cccc3nc2-1 | > 100 µM | – | – | > 100 µM | 1.75 µM | > 100 µM | – | – | < 0.01 µM | – | – | < 0.01 µM | 0.0473 µM | > 100 µM | – | < 0.01 µM
Oc1ccccc1C=Nc1nc(SCc2ccccc2)nc2[nH]ncc12 | 70.2 µM | > 100 µM | > 100 µM | > 100 µM | > 100 µM | 44.7 µM | > 100 µM | 95.7 µM | 26.7 µM | > 100 µM | > 100 µM | 39.1 µM | 34.8 µM | 11 µM | 94.8 µM | 26.1 µM
COc1ccc(-n2cc(-c3cc(OC)c(OC)c(OC)c3)nc2SCc2ccccc2)cc1OC | > 100 µM | > 100 µM | > 100 µM | > 100 µM | > 100 µM | > 100 µM | > 100 µM | > 100 µM | 12.3 µM | > 100 µM | 34.4 µM | 34.6 µM | > 100 µM | > 100 µM | 17.7 µM | 48.2 µM
CCOC(=O)/C(=C\c1ccc(C#N)cc1)C(C)=O | 68.2 µM | 37.7 µM | 45.5 µM | 61.9 µM | 31.5 µM | 88.6 µM | 28 µM | > 100 µM | – | – | – | – | – | – | – | –
N#CC1=C(N)Oc2c(sc3c(Br)cccc23)C1c1ccc(Br)cc1 (stereo unspecified) | 4.67 µM | 2.82 µM | 3.09 µM | 12.4 µM | 20.7 µM | 13.5 µM | 11.8 µM | 0.788 µM | 0.397 µM | 0.571 µM | 0.407 µM | 0.382 µM | 1.39 µM | 2.44 µM | 1.95 µM | 0.28 µM
COc1ccc(/C(=N\O)c2cc(C)c(OC)c(C)c2)cc1O | – | > 100 µM | – | > 100 µM | > 100 µM | > 100 µM | > 100 µM | 0.0607 µM | – | 0.0349 µM | – | < 0.01 µM | < 0.01 µM | 0.0198 µM | 0.0709 µM | 0.011 µM
CN1C(=O)C(CC(=O)O)NC1=S (stereo unspecified) | > 100 µM | > 100 µM | > 100 µM | > 100 µM | > 100 µM | > 100 µM | > 100 µM | > 100 µM | – | – | – | – | – | – | – | –
Oc1[nH]c2c(Br)cccc2c1C1=Nc2ccccc2/C1=N/OCCN1CCCC1 | – | 4.31 µM | 3.64 µM | > 100 µM | 4.84 µM | 3 µM | 4.97 µM | – | 3.51 µM | 0.688 µM | 1.14 µM | 0.781 µM and 0.57 µM | 1.16 µM | 1.2 µM | 0.44 µM | 1.04 µM and 0.998 µM
COc1cc(Cl)cc(-c2nn(-c3cccc(NC(=O)Nc4cc(C(F)(F)F)cc(C(F)(F)F)c4)c3)cc2-c2ccncc2)c1 | 6.27 µM | 12.4 µM | 6.86 µM | 9.3 µM | 4.77 µM | 13.6 µM | 1.92 µM | 2.49 µM | 0.476 µM | 0.53 µM | 1.18 µM | 0.439 µM | 0.73 µM | 1.89 µM | 0.28 µM | 0.32 µM
CC(=O)OCC(=O)[C@@]12OC(C)(C)O[C@@H]1C[C@H]1[C@@H]3CC=C4C[C@@H](O)CC[C@]4(C)[C@H]3CC[C@@]12C | > 100 µM | > 100 µM | 29.4 µM | > 100 µM | > 100 µM | 63.4 µM | > 100 µM | > 100 µM | – | – | – | – | – | – | – | –
Clc1ccc2nnnn2n1 | 24 µM | 6.41 µM | > 100 µM | 14.3 µM | 31.4 µM | > 100 µM | > 100 µM | 5.14 µM | 6.25 µM | 2.31 µM | 4.07 µM | 3.11 µM | 12.1 µM | 21.8 µM | 3.52 µM | 1.94 µM
CC(C)COCC(CN(Cc1ccccc1)c1ccccc1)N1CCCC1 (stereo unspecified) | 6.49 µM | 13.6 µM | 17.6 µM | 4.78 µM | 4.74 µM | 18.2 µM | 13.1 µM | 7.56 µM | 1.74 µM | 3.76 µM | 3.47 µM | 2.06 µM | 1.89 µM | 3.6 µM | 1.96 µM | 3.09 µM
